{
  "source": "ChEMBL document CHEMBL5500420",
  "about": "“Discovery of BI-9508, a Brain-Penetrant GPR88-Receptor-Agonist Tool Compound for In Vivo Mouse Studies” (J Med Chem, 2024)",
  "key": {"P-gp": {"tested_on": "P-gp", "experiment": "Apparent permeability in P-gp overexpressing MDCK-MDR1 cells at 1 uM incubated upto 2 hrs", "type": "ADME, cell-based, Canis lupus familiaris", "settings": "dog"}, "[1]": {"experiment": "Protein binding in mouse plasma at 1 uM incubated for 2 hrs by equilibrium dialysis based HPLC-MS/MS analysis", "type": "ADME, cell-free", "settings": "read-out: PPB (converted)"}, "[2]": {"experiment": "Solubility of compound at pH 7 by high-throughput analysis", "type": "physicochemical", "settings": "buffer"}, "[3]": {"target": "G protein-coupled receptor 88 (Homo sapiens, UniProt Q9GZN0)", "sequence (Q9GZN0 whole entry)": "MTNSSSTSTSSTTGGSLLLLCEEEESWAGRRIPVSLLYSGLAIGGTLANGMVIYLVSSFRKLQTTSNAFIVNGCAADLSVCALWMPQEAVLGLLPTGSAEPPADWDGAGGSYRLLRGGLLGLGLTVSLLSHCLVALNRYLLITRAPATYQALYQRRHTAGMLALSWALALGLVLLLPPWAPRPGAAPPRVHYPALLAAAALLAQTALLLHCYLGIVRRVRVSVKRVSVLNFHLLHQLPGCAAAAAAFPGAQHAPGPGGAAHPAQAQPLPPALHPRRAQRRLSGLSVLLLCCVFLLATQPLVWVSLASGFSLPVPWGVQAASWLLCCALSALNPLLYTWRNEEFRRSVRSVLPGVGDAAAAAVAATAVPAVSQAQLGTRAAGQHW", "experiment": "Agonist activity at human GPR88 transfected in HEK293 cells incubated for 10 mins by Gi1 BRET assay"}, "[4]": {"target": "T1, G protein-coupled receptor 88 (Mus musculus, UniProt Q9EPB7)", "T1 sequence (Q9EPB7 whole entry)": "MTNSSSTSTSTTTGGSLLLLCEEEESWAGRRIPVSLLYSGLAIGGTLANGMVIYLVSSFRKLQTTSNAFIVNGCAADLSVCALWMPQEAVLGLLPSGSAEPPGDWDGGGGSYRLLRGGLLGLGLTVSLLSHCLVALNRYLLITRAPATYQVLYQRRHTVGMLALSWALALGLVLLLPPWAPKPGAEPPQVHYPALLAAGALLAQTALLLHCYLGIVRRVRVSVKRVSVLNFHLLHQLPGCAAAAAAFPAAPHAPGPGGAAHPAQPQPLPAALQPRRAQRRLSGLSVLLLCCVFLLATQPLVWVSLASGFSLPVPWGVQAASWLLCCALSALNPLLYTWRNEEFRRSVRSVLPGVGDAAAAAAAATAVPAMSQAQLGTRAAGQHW", "experiment": "Agonist activity at mouse GPR88 transfected in HEK293 cells incubated for 10 mins by Gi1 BRET assay", "type": "functional, cell-based"}, "[5]": {"target": "T1, G protein-coupled receptor 88", "experiment": "Agonist activity at GPR88 in wildtype mouse striatal membrane assessed as stimulation of [35S]-GTPgammaS binding incubated for 1 hrs in presence of GDP by liquid scintillation counter"}},
  "data": [
    {"smiles": "Cc1nnc2n1-c1sc(CCC(=O)N3CCOCC3)cc1C(c1ccccc1Cl)=NC2", "note": "[APAFANT]", "values": [
      {"measurement": "Papp at 2 h, 1 µM", "setting": "P-gp", "value": 3, "unit": "×10⁻⁶ cm/s"}
    ]},
    {"smiles": "CC(C)Oc1ccc(-c2ccc(N(CCOC(F)F)C(=O)[C@@H]3C[C@H]3c3ccncn3)c3ncnn23)cc1", "values": [
      {"measurement": "fraction unbound at 2 h, 1 µM", "setting": "[1]", "value": 0.062},
      {"measurement": "solubility", "setting": "[2]", "value": 11, "unit": "µg/mL"}
    ]},
    {"smiles": "CO[C@H](C)[C@H](N)CN(C(=O)[C@@H]1C[C@H]1c1ccncn1)c1ccc(-c2ccc(OC(C)C)cc2)cc1", "values": [
      {"measurement": "EC50", "setting": "[3]", "value": "> 99000", "unit": "nM"}
    ]},
    {"smiles": "CC(C)Oc1ccc(-c2ccc(N(CCOC(F)F)C(=O)[C@@H]3C[C@H]3c3ccncn3)c3c2cnn3C)cc1", "values": [
      {"measurement": "EC50", "setting": "[4]", "value": 94, "unit": "nM"}
    ]},
    {"smiles": "COc1cc(-c2ccc(OC(C)C)cc2)ccc1N(C[C@@H](N)[C@@H](C)OC)C(=O)[C@@H]1C[C@H]1c1ccncn1", "values": [
      {"measurement": "EC50", "setting": "[3]", "value": 168, "unit": "nM"},
      {"measurement": "EC50", "setting": "[5]", "value": 6100, "unit": "nM"},
      {"measurement": "EC50", "setting": "[4]", "value": 226, "unit": "nM"}
    ]},
    {"smiles": "COc1cc(-c2ccc(O[C@@H](C)C(F)(F)F)nc2)ccc1N(CCOC(F)F)C(=O)[C@@H]1C[C@H]1c1ccncn1", "values": [
      {"measurement": "fraction unbound at 2 h, 1 µM", "setting": "[1]", "value": 0.004}
    ]},
    {"smiles": "CO[C@H](C)[C@H](N)CN(C(=O)[C@@H]1C[C@H]1c1ccncn1)c1ccc(-c2ccc(OC(C)C)nc2)cc1", "values": [
      {"measurement": "fraction unbound at 2 h, 1 µM", "setting": "[1]", "value": 0.052}
    ]}
  ]
}
